These results are taken from PubChem BioAssay (NCI).

Several values for one entry are separate records, joined by “and”; a condition that tells them apart may be missing. Identical values can stand only once.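 How tested: cells in 96-well plates exposed to compound for 48 hours at five concentrations. Abbreviation: GI50, concentration required for 50% inhibition of growth. The concentration for full growth arrest is given as TGI.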

Among the test systems are CAKI-1 renal; RXF 393 renal; MALME-3M melanoma; M14 melanoma; MOLT-4 leukemia; MDA-MB-435; SR leukemia; SF-268 CNS; IGROV1 ovarian; SK-MEL-28 melanoma.
What all share (test): growth of human tumour cells (NCI), 48 h

On to `Cc1ncc(C(=O)Nc2ccc(CN3CCN(C)CC3)c(C(F)(F)F)c2)cc1C#Cc1cnc(N)c2cnccc12`, for which the GI50 is 167 nM in the assay with CAKI-1 renal; 0.0706 µM with RXF 393 renal; under 0.0113 µM in the assay on MALME-3M melanoma; 0.0225 µM in the assay on M14 melanoma; 41.2 nM in the assay on MOLT-4 leukemia; 0.0261 µM in the assay on MDA-MB-435. The GI50 was 45.6 nM in the assay with SR leukemia, 0.0791 µM in the assay with SF-268 CNS, 29.4 nM in the assay with IGROV1 ovarian and 0.0181 µM in the assay on SK-MEL-28 melanoma. The TGI in the assay on CAKI-1 renal amounted to 1.64 µM; in the assay with RXF 393 renal, 399 nM; with MALME-3M melanoma, 0.042 µM; in the assay on M14 melanoma, 170 nM; in the assay with MOLT-4 leukemia, 4.98 µM; in the assay with MDA-MB-435, 4.11 µM. Besides, the TGI was 1.92 µM in the assay with SR leukemia, 11.7 µM in the assay with SF-268 CNS, 0.282 µM with IGROV1 ovarian and 376 nM in the assay on SK-MEL-28 melanoma.

Regarding `C[C@H](N)C(=O)N[C@@H]1[C@H]2C(=C(O)C[C@@H](O)[C@@H]2O)C(=O)O[C@]1(C)C(Cl)Cl`, the GI50 is 430 nM with CAKI-1 renal; 0.258 µM in the assay with M14 melanoma; 186 nM and 130 nM with MOLT-4 leukemia; 0.309 µM in the assay on MDA-MB-435; 255 nM in the assay on SR leukemia; 0.15 µM with SF-268 CNS. Moreover, in the assay with IGROV1 ovarian, the GI50 was 441 nM. In addition, the TGI with RXF 393 renal is 828 nM and 1080 nM; in the assay on MALME-3M melanoma, 1.64 µM and 1.33 µM; in the assay with M14 melanoma, 1490 nM and 507 nM; with MOLT-4 leukemia, 3.79 µM and 0.564 µM; in the assay with MDA-MB-435, 3.42 µM and 0.86 µM; in the assay with SR leukemia, 7.55 µM. Further, the TGI with SF-268 CNS was 2.8 µM and 2.59 µM; in the assay with IGROV1 ovarian it was 7.79 µM and 2.43 µM; with SK-MEL-28 melanoma it was 2750 nM and 1650 nM.

As to `CN(C)CCCNC(=O)c1ccc2oc3cc4ccccc4c(=O)n3c2c1`, the GI50 was 8310 nM in the assay with CAKI-1 renal; 41.6 µM in the assay with RXF 393 renal; over 50 µM with MALME-3M melanoma; 30.3 µM in the assay with M14 melanoma; over 50000 nM in the assay with MOLT-4 leukemia; 31.6 µM in the assay on MDA-MB-435. Also, the GI50 with SR leukemia is 30800 nM; in the assay on SF-268 CNS it was 15.4 µM; in the assay on IGROV1 ovarian, 18400 nM; in the assay on SK-MEL-28 melanoma, 19.9 µM. Moreover, the TGI was 36.5 µM in the assay on CAKI-1 renal; over 50000 nM in the assay with RXF 393 renal; over 50 µM in the assay with MALME-3M melanoma; over 50000 nM in the assay with M14 melanoma; over 50 µM with MOLT-4 leukemia; over 50 µM with MDA-MB-435. For the same compound, the TGI was over 50 µM in the assay with SR leukemia, over 50 µM in the assay on SF-268 CNS, over 50 µM in the assay on IGROV1 ovarian and over 50000 nM in the assay with SK-MEL-28 melanoma.

In the case of `Fc1ccc(-c2nn3c(CNc4ccccc4)nnc3s2)cc1`, the GI50 with CAKI-1 renal was 19400 nM; in the assay on RXF 393 renal, over 100 µM; in the assay on MALME-3M melanoma it was 21.2 µM; with M14 melanoma it was 35.5 µM; in the assay with MOLT-4 leukemia, 27000 nM; in the assay with MDA-MB-435 it was 18.7 µM. Moreover, the GI50 is over 100000 nM with SR leukemia, 64.3 µM in the assay on SF-268 CNS, 49300 nM in the assay on IGROV1 ovarian and 42.2 µM in the assay on SK-MEL-28 melanoma. Besides, the TGI is 49.2 µM in the assay on CAKI-1 renal; over 100000 nM in the assay with RXF 393 renal; 94.6 µM in the assay with MALME-3M melanoma; over 100000 nM with M14 melanoma; over 100 µM with MOLT-4 leukemia; 51.6 µM with MDA-MB-435. Moreover, the TGI is over 100 µM in the assay with SR leukemia, over 100 µM in the assay on SF-268 CNS, over 100 µM with IGROV1 ovarian and over 100000 nM with SK-MEL-28 melanoma.

`NC(=O)/C(=C\c1ccncc1)c1cccc2ccccc12`: the TGI with CAKI-1 renal is over 100 µM; in the assay with RXF 393 renal, over 100000 nM; with MALME-3M melanoma, over 100 µM; in the assay with M14 melanoma, over 100000 nM; in the assay on MOLT-4 leukemia it was over 100 µM; in the assay with MDA-MB-435, over 100 µM. The TGI was over 100 µM with SR leukemia, over 100 µM in the assay with SF-268 CNS, over 100 µM in the assay with IGROV1 ovarian and over 100000 nM with SK-MEL-28 melanoma.

As for `CC(C)CCSC1=CC(=O)c2ccccc2C1=O`, the GI50 with CAKI-1 renal was 10300 nM; in the assay with RXF 393 renal it was 5.06 µM; with MALME-3M melanoma, 1.57 µM; in the assay on M14 melanoma, 15.6 µM; in the assay on MOLT-4 leukemia, 228 nM; in the assay on MDA-MB-435 it was 3.88 µM. Further, the GI50 in the assay with SR leukemia is 50.6 nM; in the assay with SF-268 CNS, 6.66 µM; with IGROV1 ovarian, 1060 nM; in the assay with SK-MEL-28 melanoma, 5.7 µM. For the same compound, the TGI in the assay with CAKI-1 renal amounted to 21.9 µM; in the assay on RXF 393 renal, 16300 nM; in the assay on MALME-3M melanoma it was 4.24 µM; in the assay on M14 melanoma, 33400 nM; with MOLT-4 leukemia it was 0.611 µM; with MDA-MB-435, 13.8 µM. For the same compound, the TGI in the assay with SR leukemia is 0.616 µM; in the assay with SF-268 CNS, 23.8 µM; in the assay with IGROV1 ovarian, 5 µM; in the assay on SK-MEL-28 melanoma it was 10700 nM.

For `CC(C)CC1C(=O)N2CCC[C@H]2C2(O)O[C@](NC(=O)C3C=C4c5cccc6[nH]c(Br)c(c56)C[C@H]4N(C)C3)(C(C)C)C(=O)N12` (stereo partly drawn), the GI50 is 2810 nM in the assay with CAKI-1 renal; 4.87 µM in the assay with RXF 393 renal; over 100 µM in the assay with MALME-3M melanoma; over 100 µM in the assay on M14 melanoma; 5060 nM in the assay with MOLT-4 leukemia; 16.7 µM in the assay on MDA-MB-435. The GI50 with SR leukemia is 33700 nM; in the assay on SF-268 CNS it was 9.02 µM; with IGROV1 ovarian it was 6790 nM. For the same compound, the TGI is over 100 µM in the assay on CAKI-1 renal; over 100000 nM with RXF 393 renal; over 100 µM with MALME-3M melanoma; over 100000 nM with M14 melanoma; over 100 µM in the assay with MOLT-4 leukemia; over 100 µM with MDA-MB-435. Further, the TGI with SR leukemia was over 100 µM; in the assay on SF-268 CNS, over 100 µM; in the assay with IGROV1 ovarian, over 100 µM; in the assay with SK-MEL-28 melanoma, over 100000 nM.

As to `CCCCCCCCCCCCNC(=O)[C@H]1CSC(c2cc3ccccc3s2)N1` (stereo partly drawn), the GI50 in the assay on CAKI-1 renal is 2090 nM; in the assay on RXF 393 renal, 0.942 µM; in the assay on MALME-3M melanoma it was 5.75 µM; in the assay with M14 melanoma, 0.591 µM; with MOLT-4 leukemia, 657 nM; in the assay with MDA-MB-435, 0.605 µM. The GI50 was 695 nM with SR leukemia, 923 nM with IGROV1 ovarian and 0.644 µM with SK-MEL-28 melanoma. Also, the TGI is 6.4 µM in the assay with CAKI-1 renal; 2210 nM in the assay with RXF 393 renal; 10.9 µM in the assay with MALME-3M melanoma; 1110 nM in the assay with M14 melanoma; 1.37 µM in the assay on MOLT-4 leukemia; 1.19 µM in the assay with MDA-MB-435. Also, the TGI amounted to 1.85 µM in the assay with SR leukemia, 2.51 µM with IGROV1 ovarian and 1390 nM in the assay on SK-MEL-28 melanoma.
